PubChem BioAssay (NCI)
Where “and” joins values, the source holds several entries; their conditions need not be identical. Equal values may be shown once.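 48-hour exposure; five concentrations; linearly interpolated endpoints. At the GI50, growth is halved. At the TGI there is no net growth.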

Columns and labels:
Test in all cases: inhibition of tumour cell growth, NCI panel, 48 h
A549 NSCLC = system: A549 NSCLC
COLO 205 colon = system: COLO 205 colon
DU-145 prostate = system: DU-145 prostate
HCT-15 colon = system: HCT-15 colon
NCI-H522 lung = system: NCI-H522 lung
NCI/ADR-RES ovarian = system: NCI/ADR-RES ovarian
OVCAR-3 ovarian = system: OVCAR-3 ovarian
OVCAR-8 ovarian = system: OVCAR-8 ovarian
SF-268 CNS = system: SF-268 CNS
UO-31 renal = system: UO-31 renal

SMILES	GI50 (A549 NSCLC)	TGI (A549 NSCLC)	GI50 (COLO 205 colon)	TGI (COLO 205 colon)	GI50 (DU-145 prostate)	TGI (DU-145 prostate)	GI50 (HCT-15 colon)	TGI (HCT-15 colon)	GI50 (NCI-H522 lung)	TGI (NCI-H522 lung)	GI50 (NCI/ADR-RES ovarian)	TGI (NCI/ADR-RES ovarian)	GI50 (OVCAR-3 ovarian)	TGI (OVCAR-3 ovarian)	GI50 (OVCAR-8 ovarian)	TGI (OVCAR-8 ovarian)	GI50 (SF-268 CNS)	TGI (SF-268 CNS)	GI50 (UO-31 renal)	TGI (UO-31 renal)
O=C1Nc2ccccc2/C1=C/C(=O)c1coc2c1C(=O)c1ccccc1C2=O	> 100 µM	> 100 µM	> 100 µM	> 100 µM	> 100 µM	> 100 µM	> 100 µM	> 100 µM	> 100 µM	> 100 µM	> 100 µM	> 100 µM	> 100 µM	> 100 µM	> 100 µM	> 100 µM	> 100 µM	> 100 µM	70.4 µM	> 100 µM
CC(C)(C)c1ccc(Oc2nccc(-c3c(-c4ccc(F)cc4)ncn3C3CCNCC3)n2)cc1	3.55 µM	6.9 µM	3.69 µM	7.46 µM	3.71 µM	7.06 µM	3.23 µM	6.68 µM	4.69 µM	8.58 µM	3.39 µM	7 µM	4.25 µM	7.77 µM	3.72 µM	7.36 µM	3.34 µM	7.07 µM	2.61 µM	6.61 µM
Cc1nn2c(/C=C3\C(=O)Nc4ccc(Cl)cc43)c(C)nc2s1	93.9 µM	> 100 µM	13.3 µM	> 100 µM	86.5 µM	> 100 µM	13.9 µM	> 100 µM	6 µM	39 µM	15.8 µM	> 100 µM	23.3 µM	> 100 µM	84.3 µM	> 100 µM	43.2 µM	> 100 µM	34.6 µM	> 100 µM
COc1ccc(C(=O)OC2C(OC3C(O)COC(O[C@H]4C[C@H]5[C@@H]6CC=C7C[C@@H](O)CC[C@]7(C)[C@H]6CC[C@]5(C)[C@H]4[C@H](C)C(=O)CCC(C)C)C3OC(N)=O)OCC(O)C2O)cc1 (stereo partly specified)	0.0773 µM	4.75 µM	0.072 µM	0.507 µM	0.0285 µM	5.34 µM	1.04 µM	5.44 µM	0.0658 µM	0.485 µM	13.9 µM	30 µM	0.755 µM	5.75 µM	3.14 µM	9.27 µM	0.0427 µM	1.49 µM	0.0944 µM	0.425 µM
COc1ccc(-c2nc(-c3nc4ccc(OC)cc4[nH]3)c3ccccn23)cc1	3.17 µM	46.7 µM	7.19 µM	39.7 µM	4.11 µM	> 100 µM	3.76 µM	90.6 µM	2.89 µM	11.2 µM	3.86 µM	57.7 µM	4.97 µM	62.1 µM	2.35 µM	7.6 µM	4.53 µM	64.3 µM	2.47 µM	7.93 µM
COc1cc(CSc2nc3ccc(C)cc3c(=O)n2-c2ccccc2)cc(OC)c1OC	1.59 µM	> 100 µM	0.576 µM	3.97 µM	3.59 µM	> 100 µM	0.577 µM	> 100 µM	1.44 µM	> 25.3 µM	1.26 µM	> 100 µM	1.95 µM	> 27.3 µM	4.51 µM	> 100 µM	6.37 µM	> 100 µM	3.67 µM	> 100 µM
C=C1C(=O)O[C@H]2[C@H]1CC/C(COC(=O)NCc1ccc(Cn3c(=O)sn(CCCl)c3=O)cc1)=C\CC[C@@]1(C)O[C@@H]21	14.2 µM	29.1 µM	1.84 µM	3.6 µM	1.72 µM	3.14 µM	1.85 µM	3.82 µM	1.38 µM	2.98 µM	26.3 µM	77.8 µM	1.53 µM	2.88 µM	2.04 µM	4.81 µM	3.73 µM	14.6 µM	1.65 µM	3.25 µM
Cc1ccc(S(=O)(=O)N/N=C/c2c(O)ccc3ccccc23)cc1	–	> 100 µM	–	37.4 µM	–	> 100 µM	–	> 100 µM	–	45.6 µM	–	> 100 µM	–	44.2 µM	–	> 100 µM	–	> 100 µM	–	> 100 µM
Cc1ccc(Nc2n[nH]c(=S)s2)cc1C	–	> 100 µM	–	> 100 µM	–	> 100 µM	–	> 100 µM	–	> 100 µM	–	> 100 µM	–	> 100 µM	–	> 100 µM	–	> 100 µM	–	> 100 µM
CCN(CC)CCCC(C)Nc1ccnc2cc(Oc3ccccc3)ccc12 (stereo unspecified)	4.13 µM and 14.2 µM	14.8 µM and 47.6 µM	1.88 µM and 1.65 µM	4.4 µM and 3.94 µM	5.73 µM and 54.6 µM	22.4 µM and > 100 µM	4.34 µM and 3.94 µM	28.3 µM and 20.1 µM	3.06 µM and 3.77 µM	13 µM and 17 µM	14.3 µM and 38.4 µM	34.1 µM and > 100 µM	13.7 µM and 22 µM	34.2 µM and > 100 µM	3.62 µM and 9.15 µM	14.6 µM and 38.5 µM	6.48 µM and 8.36 µM	19.9 µM and 92.4 µM	1.3 µM and 11.3 µM	3.09 µM and 27.7 µM
CN[C@@H](C)C(=O)N[C@H](C(=O)N1CCC[C@H]1C(=O)Nc1snnc1-c1ccccc1)C1CCCCC1	71.6 µM	> 100 µM	21.6 µM	42.1 µM	65.4 µM	> 100 µM	58.3 µM	> 100 µM	18.3 µM	53.4 µM	66.1 µM	> 100 µM	58.5 µM	> 100 µM	13.8 µM	21.3 µM	> 86.1 µM	> 100 µM	97.4 µM	> 100 µM
C=C1CCC2C3(C)COC(c4ccc(N(C)C)cc4)OC3CCC2(C)C1C/C=C1/C(=O)OCC1O (stereo unspecified)	4.73 µM	17.3 µM	3.54 µM	12.7 µM	3.01 µM	10.4 µM	1.91 µM	6 µM	3.22 µM	14 µM	3.83 µM	43.5 µM	1.96 µM	3.98 µM	3.78 µM	18.9 µM	3.78 µM	14.4 µM	5.63 µM	18.9 µM
O=C(O)CNC(=O)c1ccc(-c2ccccc2)cc1	–	> 100 µM	–	> 100 µM	–	> 100 µM	–	> 100 µM	–	> 100 µM	–	> 100 µM	–	> 100 µM	–	> 100 µM	–	> 100 µM	–	> 100 µM
C(#Cc1ccccc1C#Cc1cccs1)c1cccs1	89.9 µM	> 100 µM	36.4 µM	> 100 µM	> 100 µM	> 100 µM	24.6 µM	> 100 µM	34.2 µM	> 100 µM	25.2 µM	> 100 µM	57.1 µM	> 100 µM	> 100 µM	> 100 µM	> 100 µM	> 100 µM	35.8 µM	> 100 µM
Cc1c(C(N)=O)sc2c1C(=O)N(Cc1ccccc1)C1=NN=C(c3ccc(Cl)cc3)CN12	3.57 µM	13.5 µM	4.42 µM	16.9 µM	3.44 µM	14.5 µM	0.688 µM	17.9 µM	3.19 µM	13.2 µM	1.76 µM	11.3 µM	3.75 µM	16.4 µM	2.97 µM	15.2 µM	2.63 µM	14.1 µM	2.24 µM	15.3 µM
CC1CCC(NC(=O)N(CCCl)N=O)CC1 (stereo unspecified)	23.6 µM	56.5 µM and 149 µM	23.1 µM	43.3 µM and 60.2 µM	–	227 µM	20.6 µM	43.4 µM and 82.8 µM	14.1 µM	31.6 µM and 90 µM	–	129 µM	–	70.4 µM	20 µM	47.3 µM and 120 µM	14.9 µM	39.8 µM and 89.5 µM	61.2 µM	92 µM
Fc1ccc2c(c1)C1=NN(c3ccccc3)C(F)C1CO2 (stereo unspecified)	7.96 µM	23.9 µM	–	30.9 µM	5.18 µM	21.8 µM	8.19 µM	19.9 µM	> 50 µM	> 50 µM	7.57 µM	18.9 µM	6.14 µM	19.1 µM	9.04 µM	27.3 µM	7.52 µM	23.2 µM	13.3 µM	> 50 µM
N#CC(NC12CC3CC(CC(C3)C1)C2)c1ccc2c(c1)OCO2 (stereo unspecified)	–	> 100 µM	–	> 100 µM	–	> 100 µM	–	> 100 µM	–	> 100 µM	–	> 100 µM	–	> 100 µM	–	> 100 µM	–	> 100 µM	–	> 100 µM
Nc1c(C(=O)c2cccc(-c3ccncc3)c2)cnn1-c1ccc(F)cc1F	6.01 µM	> 25 µM	2.09 µM	> 21.4 µM	> 22.1 µM	> 25 µM	2.19 µM	> 25 µM	5.73 µM	> 18.7 µM	3.83 µM	> 25 µM	9.08 µM	> 25 µM	18.3 µM	> 25 µM	> 19.7 µM	> 25 µM	8.96 µM	> 25 µM
COc1c(C)c2c(c(O)c1C/C=C(\C)CCC(=O)O)C(=O)OC2	0.239 µM	> 100 µM	0.416 µM	> 100 µM	0.57 µM	> 100 µM	0.15 µM	> 100 µM	0.262 µM	> 100 µM	0.514 µM	> 100 µM	0.286 µM	> 100 µM	0.443 µM	> 100 µM	0.578 µM	> 100 µM	0.472 µM	> 100 µM
